Assay results taken from US20240158446A1, “CYCLIC COMPOUND HAVING SELECTIVE INHIBITORY ACTION ON KRAS OVER HRAS AND NRAS” (CHUGAI SEIYAKU KABUSHIKI KAISHA, priority 2021, published 2024).
Where two headings read alike, the source gives them in different places. Where a SMILES comes first, the peptide text is derived from it. Bridges are numbered along the chain shown (N, C = ends). [ ]: non-standard residue; d: D form. The star is where a group is joined. hPhe(3-Cl-4-CF3) = N[C@@H](CCc1ccc(C(F)(F)F)c(Cl)c1)C(=O)O; NPrPhe(4-CF3) = CCCN[C@@H](Cc1ccc(C(F)(F)F)cc1)C(=O)O; NMePhe(4-Me) = CN[C@@H](Cc1ccc(C)cc1)C(=O)O; NMeGly(cPent) = CN[C@H](C(=O)O)C1CCCC1; Pro(4,4-F2) = O=C(O)[C@@H]1CC(F)(F)CN1; NMeD = CN[C@@H](CC(=O)O)C(=O)O; NMeL = CN[C@@H](CC(C)C)C(=O)O; Morpholide = C1CN(*)CCO1; NMeA = CN[C@@H](C)C(=O)O; Ac5c = NC1(C(=O)O)CCCC1; Aze = O=C(O)[C@@H]1CCN1; Ac4c = NC1(C(=O)O)CCC1; NEtG = CCNCC(=O)O; Sar = CNCC(=O)O

How the values were obtained:
[1] = molecular target: GDP-bound KRAS wild-type protein (Homo sapiens, UniProt P01116); test: Binding to KRAS by surface plasmon resonance (SPR), Single Cycle Kinetics; conditions: GDP-bound KRAS wild-type protein, 1:1 binding model, read-out: KRAS KD
[2] = molecular target: GDP-bound HRAS wild-type protein (Homo sapiens, UniProt P01112); test: Binding to HRAS by surface plasmon resonance (SPR), Single Cycle Kinetics; conditions: for HRAS/KRAS (ratio of KD value with respect to HRAS to KD value with respect to KRAS) / HRAS/KRAS (ratio of KD value for HRAS to KD value for KRAS): SPR, GDP-bound HRAS wild-type protein vs GDP-bound KRAS wild-type protein
[3] = molecular target: GDP-bound NRAS wild-type protein (Homo sapiens, UniProt P01111); test: Binding to NRAS by surface plasmon resonance (SPR), Single Cycle Kinetics; conditions: for NRAS/KRAS (ratio of KD value with respect to NRAS to KD value with respect to KRAS) / NRAS/KRAS (ratio of KD value for NRAS to KD value for KRAS): SPR, GDP-bound NRAS wild-type protein vs GDP-bound KRAS wild-type protein
Chain of GDP-bound NRAS wild-type protein (P01111 whole entry): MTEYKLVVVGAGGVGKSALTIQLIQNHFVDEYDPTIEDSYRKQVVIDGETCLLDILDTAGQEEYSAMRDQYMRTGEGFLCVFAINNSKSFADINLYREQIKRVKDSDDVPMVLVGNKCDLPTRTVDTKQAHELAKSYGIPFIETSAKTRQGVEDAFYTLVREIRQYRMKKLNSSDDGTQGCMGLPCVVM

Chain of GDP-bound HRAS wild-type protein (P01112 whole entry): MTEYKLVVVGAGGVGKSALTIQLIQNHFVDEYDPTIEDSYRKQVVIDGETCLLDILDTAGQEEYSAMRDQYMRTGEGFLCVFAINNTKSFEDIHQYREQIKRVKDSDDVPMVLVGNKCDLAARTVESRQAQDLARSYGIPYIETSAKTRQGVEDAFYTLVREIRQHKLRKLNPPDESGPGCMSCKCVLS
Chain of GDP-bound KRAS wild-type protein (P01116 whole entry): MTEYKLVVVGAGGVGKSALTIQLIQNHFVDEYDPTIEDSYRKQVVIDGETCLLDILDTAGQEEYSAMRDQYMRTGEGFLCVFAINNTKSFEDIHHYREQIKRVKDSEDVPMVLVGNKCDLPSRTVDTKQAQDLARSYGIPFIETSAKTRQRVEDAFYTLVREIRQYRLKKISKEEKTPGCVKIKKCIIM

Structure (SMILES) | Kd ([1]; SPR Single Cycle Kinetics) | HRAS/KRAS (ratio of KD value with respect to HRAS to KD value with respect to KRAS) [2] | NRAS/KRAS (ratio of KD value with respect to NRAS to KD value with respect to KRAS) [3] | HRAS/KRAS (ratio of KD value for HRAS to KD value for KRAS) [2] | NRAS/KRAS (ratio of KD value for NRAS to KD value for KRAS) [3] | also measured
CCO[C@@H]1C[C@H]2C(=O)NC3(CCC3)C(=O)N(C)[C@@H](C3CCCC3)C(=O)N(C)[C@H](C(=O)N(C)C)CC(=O)N(C)[C@@H](CC)C(=O)N[C@@H]([C@@H](C)CC)C(=O)N(C)CC(=O)N(C)[C@H]3CCCCCN(C3=O)[C@@H](Cc3ccc(C(F)(F)F)cc3)C(=O)N(C)CC(=O)N[C@@H](CCc3cc(F)c(C(F)(F)F)c(F)c3)C(=O)N2C1 [PP0663] | 0.28 nM | B (a compound having 3 or more and less than 10 is denoted as B) | B (a compound having 3 or more and less than 10 is denoted as B) | – | – | –
CCO[C@@H]1C[C@H]2C(=O)NC3(CCC3)C(=O)N(C)[C@@H](C3CCCC3)C(=O)N(C)[C@H](C(=O)N(C)C)CC(=O)N(C)[C@@H](CC3CCCC3)C(=O)N[C@@H]([C@@H](C)CC)C(=O)N(C)CC(=O)N(C)[C@H]3C/C=C\CCN(C3=O)[C@@H](Cc3ccc(F)cc3)C(=O)N(C)CC(=O)N[C@@H](CCc3cc(F)c(C(F)(F)F)c(F)c3)C(=O)N2C1 [PP1531, (2S,8S,12R,14S,20S,23S,27S,30S,36S,38Z)-20-cyclopentyl-27-(cyclopentylmethyl)-8-[2-[3,5-difluoro-4-(trifluoromethyl)phenyl]ethyl]-12-ethoxy-2-[(4-fluorophenyl)methyl]-N,N,4,19,22,26,32,35-octamethyl-30-[(1S)-1-methylpropyl]-3,6,9,15,18,21,25,28,31,34,42-undecaoxo-spiro[1,4,7,10,16,19,22,26,29,32,35-undecazatricyclo[34.5.1.0^10,14]dotetracont-38-ene-17,1′-cyclobutane]-23-carboxamide] | – | – | – | – | – | Kd ([1]; SPR, Single Cycle Kinetics): 0.12 nM; HRAS/KRAS (ratio of KD value for HRAS to KD value for KRAS) ([2]; KD ratio class): B (a compound having 3 or more and less than 10 is denoted as B); NRAS/KRAS (ratio of KD value for NRAS to KD value for KRAS) ([3]; KD ratio class): A (a compound having 10 or more and less than 20 is denoted as A)
CCCN1C(=O)CN(C)C(=O)[C@@H]2CCN2C(=O)[C@H]([C@@H](C)CC)NC(=O)[C@H](CC(C)C)N(C)C(=O)C[C@@H](C(=O)N2CCOCC2)NC(=O)[C@H](C2CCCC2)N(C)C(=O)C2(CCCC2)NC(=O)[C@@H]2CCCN2C(=O)[C@H](CCc2ccc(C(F)(F)F)c(Cl)c2)NC(=O)CN(C)C(=O)[C@@H]1Cc1ccc(C(F)(F)F)cc1 [PP0337] ([NMeL]I[Aze][Sar][NPrPhe(4-CF3)][Sar][hPhe(3-Cl-4-CF3)]P[Ac5c][NMeGly(cPent)]D-Morpholide; lactam N-11) | 2.5 nM | – | – | B (a compound having 3 or more and less than 10 is denoted as B) | B (a compound having 3 or more and less than 10 is denoted as B) | –
CC[C@H](C)[C@@H]1NC(=O)[C@H](CC(C)C)N(C)C(=O)C[C@@H](C(=O)N2CCOCC2)N(C)C(=O)[C@H](C2CCCC2)N(C)C(=O)C2(CCCC2)NC(=O)[C@@H]2CCCN2C(=O)[C@H](CCc2ccc(C(F)(F)F)c(Cl)c2)NC(=O)CN(CC)C(=O)[C@H](Cc2ccc(C)cc2)N(C)C(=O)CN(C)C(=O)CN(C)C1=O [PP0025] ([NMeL]I[Sar][Sar][NMePhe(4-Me)][NEtG][hPhe(3-Cl-4-CF3)]P[Ac5c][NMeGly(cPent)][NMeD]-Morpholide; lactam N-11) | 2.4 nM | – | – | C (A compound having a KD ratio of 0.1 or more and less than 3 is denoted as C) | C (A compound having a KD ratio of 0.1 or more and less than 3 is denoted as C) | –

The remaining compounds from weak to strong by Kd ([1]; SPR Single Cycle Kinetics), led by results:

Kd ([1]; SPR Single Cycle Kinetics) | Structure (SMILES) | HRAS/KRAS (ratio of KD value with respect to HRAS to KD value with respect to KRAS) [2] | NRAS/KRAS (ratio of KD value with respect to NRAS to KD value with respect to KRAS) [3] | HRAS/KRAS (ratio of KD value for HRAS to KD value for KRAS) [2] | NRAS/KRAS (ratio of KD value for NRAS to KD value for KRAS) [3] | also measured
0.13 nM | CCC[C@H]1C(=O)N[C@@H]([C@@H](C)CC)C(=O)N(C)CC(=O)N(C)[C@H]2C/C=C\CCN(C2=O)[C@@H](Cc2ccc(C(F)(F)F)cc2)C(=O)N(C)CC(=O)N[C@@H](CCc2ccc(Cl)c(C(F)(F)F)c2)C(=O)N2C[C@H](OCC)C[C@H]2C(=O)NC2(CC(C)(C)C2)C(=O)N(C)[C@@H](C2CCCC2)C(=O)N(C)[C@H](C(=O)N(C)C)CC(=O)N1C [PP2784] | – | – | – | – | HRAS/KRAS (ratio of KD value with respect to GDP-bound HRAS wild-type protein to KD value with respect to KRAS) ([2]; SPR KD ratio HRAS/KRAS, class symbols): A (a compound having 10 or more and less than 20 is denoted as A); NRAS/KRAS (ratio of KD value with respect to GDP-bound NRAS wild-type protein to KD value with respect to KRAS) ([3]; SPR KD ratio NRAS/KRAS, class symbols): A (a compound having 10 or more and less than 20 is denoted as A)
0.036 nM | CCCN1C(=O)[C@@H]2CCN2C(=O)[C@H](C)N(C)C(=O)[C@H]([C@@H](C)CC)NC(=O)[C@H](CC(C)C)N(C)C(=O)C[C@@H](C(=O)N(C)C)N(C)C(=O)[C@H](C2CCCC2)N(C)C(=O)C2(CCC2)NC(=O)[C@@H]2CC(F)(F)CN2C(=O)[C@H](CCc2ccc(C(F)(F)F)c(Cl)c2)NC(=O)CN(C)C(=O)[C@@H]1Cc1ccc(C(F)(F)F)cc1 [PP0437] ([NMeL]I[NMeA][Aze][NPrPhe(4-CF3)][Sar][hPhe(3-Cl-4-CF3)][Pro(4,4-F2)][Ac4c][NMeGly(cPent)][NMeD]-NMe2; lactam N-11) | B (a compound having 3 or more and less than 10 is denoted as B) | C (A compound having a KD ratio of 0.1 or more and less than 3 is denoted as C) | – | – | –
